The NIST ThermoML archive (doi:10.1016/j.jct.2013.08.021)
Numbers after ± are expanded uncertainties.

Conditions: for viscosity / speed of sound / mass density: 101 kPa, Liquid; for viscosity: Capillary tube (Ostwald / Ubbelohde) method; for speed of sound: Sing-around technique in a fixed-path interferometer; for mass density: Vibrating tube method

Q: For `CCC[N+]1(C)CCCC1.O=S(=O)([N-]S(=O)(=O)C(F)(F)F)C(F)(F)F`, which viscosity (293.15 K) is on record?
A: The viscosity was 66.61 ± 1.4 mPa·s.

Q: What about the speed of sound (293.15 K) of the same compound?
A: Its speed of sound is 1281.9 ± 1.5 m/s.

Q: What about the mass density (293.15 K) of the same compound?
A: The mass density was 1432.42 ± 0.61 kg/m3.

Q: What about the viscosity (298.15 K) of the same compound?
A: The viscosity was 49.35 ± 1 mPa·s.

Q: What about the speed of sound (298.15 K) of the same compound?
A: Its speed of sound is 1270.6 ± 1.5 m/s.

Q: What about the mass density (298.15 K) of the same compound?
A: Its mass density is 1427.86 ± 0.6 kg/m3.

Q: What about the viscosity (303.15 K) of the same compound?
A: The viscosity was 38.52 ± 0.81 mPa·s.

Q: What about the speed of sound (303.15 K) of the same compound?
A: The speed of sound was 1259 ± 1.5 m/s.

Q: And the mass density (303.15 K)?
A: The mass density was 1423.37 ± 0.6 kg/m3.

Q: What about the viscosity (308.15 K) of the same compound?
A: Its viscosity is 30.93 ± 0.65 mPa·s.

Q: What about the speed of sound (308.15 K) of the same compound?
A: The speed of sound was 1249.1 ± 1.5 m/s.

Q: And the mass density (308.15 K)?
A: Its mass density is 1418.86 ± 0.59 kg/m3.

Q: What about the viscosity (313.15 K) of the same compound?
A: The viscosity was 26.17 ± 0.55 mPa·s.

Q: What about the speed of sound (313.15 K) of the same compound?
A: Its speed of sound is 1238.2 ± 1.5 m/s.

Q: And the mass density (313.15 K)?
A: The mass density was 1414.37 ± 0.59 kg/m3.

Q: And the viscosity (318.15 K)?
A: Its viscosity is 22.39 ± 0.47 mPa·s.

Q: What about the speed of sound (318.15 K) of the same compound?
A: The speed of sound was 1227.4 ± 1.5 m/s.

Q: And the mass density (318.15 K)?
A: The mass density was 1409.9 ± 0.58 kg/m3.

Q: What about the viscosity (323.15 K) of the same compound?
A: Its viscosity is 19.31 ± 0.41 mPa·s.

Q: What about the speed of sound (323.15 K) of the same compound?
A: The speed of sound was 1216.9 ± 1.5 m/s.

Q: What about the mass density (323.15 K) of the same compound?
A: The mass density was 1405.45 ± 0.58 kg/m3.

Q: What about the viscosity (328.15 K) of the same compound?
A: Its viscosity is 17.13 ± 0.36 mPa·s.

Q: And the speed of sound (328.15 K)?
A: Its speed of sound is 1205.9 ± 1.5 m/s.

Q: What about the mass density (328.15 K) of the same compound?
A: Its mass density is 1401.01 ± 0.58 kg/m3.

Q: And the viscosity (333.15 K)?
A: The viscosity was 15.07 ± 0.32 mPa·s.

Q: What about the speed of sound (333.15 K) of the same compound?
A: The speed of sound was 1196.4 ± 1.5 m/s.

Q: And the mass density (333.15 K)?
A: The mass density was 1396.59 ± 0.57 kg/m3.

Q: What about the viscosity (338.15 K) of the same compound?
A: Its viscosity is 13.36 ± 0.28 mPa·s.

Q: What about the speed of sound (338.15 K) of the same compound?
A: The speed of sound was 1186.3 ± 1.5 m/s.

Q: What about the mass density (338.15 K) of the same compound?
A: The mass density was 1392.17 ± 0.57 kg/m3.

Q: What about the viscosity (343.15 K) of the same compound?
A: Its viscosity is 11.93 ± 0.25 mPa·s.

Q: What about the speed of sound (343.15 K) of the same compound?
A: Its speed of sound is 1176.2 ± 1.5 m/s.

Q: And the mass density (343.15 K)?
A: Its mass density is 1387.77 ± 0.56 kg/m3.

Q: And the Normal melting temperature (Crystal, DTA)?
A: Its Normal melting temperature is 11.00 ± 2 °C.
